According to US5362747A, “2-nitroaryl and 2-cyanoaryl compounds as regulators of nitric oxide synthase” (Abbott Laboratories, priority 1993, dated 1994):

Legend:
Type I (rat brain) NOS = target: T1, Type I (rat brain) NOS (Rattus norvegicus, UniProt P29476); experiment: [3H]-arginine to [3H]-citrulline conversion, Type I (rat brain) NOS; type: biochemical; conditions: rat brain cerebellum NOS, 25° C.; for inhibition at 100 µM: read-out: Type I % inhib. @ 100 μM
T1 construct: isolated from rat brain cerebellum cells partially purified on a phosphocellulose column; from tissue; host or cells: rat brain cerebellum, partially purified on phosphocellulose

Type II (macrophage) NOS = target: T2, Type II (macrophage) NOS (Mus musculus, UniProt P29477); experiment: [3H]-arginine to [3H]-citrulline conversion, Type II (macrophage) NOS; type: biochemical, murine; conditions: cytosolic NOS from LPS-induced RAW 264.7 cells, 25° C.; for inhibition at 100 µM: read-out: Type II % inhib. @ 100 μM
T2 construct: cytosolic preparations of NO synthase (type II isoform) were prepared from RAW 264.7 cells; endogenous in cells; host or cells: RAW 264.7 cells, induced 16 hours with lipopolysaccharide; cytosolic preparation
Excerpt: The enzyme NO synthase produces EDRF/NO and citrulline from L-arginine (Bredt and Snyder, Proc. Nat'l Acad Sci USA, 1989, 87: 682-5). The enzymatic generation of EDRF/NO is monitored by measuring the conversion of [^3 H]-L-arginine to [^3 H]-L-citrulline. An inhibitor of this specific enzymatic reaction lowers the conversion rate and, thus, the amount of [^3 H]-L-citrulline produced. Likewise, a compound acting as a substrate would compete with L-arginine and thereby lower the conversion rate.
The conversion of L-arginine to L-citrulline was assayed as reported previously (Bredt and Snyder, Proc. Nat'l Acad Sci USA, 1989, 87: 682-5) with minor modifications. Briefly, samples of partially purified NO synthase, […] of partially purified NO synthase or, alternately, […] of a cytosolic preparation of NO synthase. The type 1 isoform of NO synthase was isolated from rat brain cerebellum cells partially purified on a phosphocellulose column. The cytosolic preparations of NO synthase (type II isoform) were prepared from RAW 264.7 cells (a murine monocyte-macrophage cell line), induced for 16 hours with […] medium of lipopolysaccharide (LPS). Another enzyme isoform (type III)is known to be present in bovine endothelial cells (BAE cells), and can be utilized if an additional assay is desired. The samples of enzyme were incubated for 20 minutes (3 minutes in the cases of purified enzyme preparations) at 25° C. in the presence of […] L-[2,3-^3 H]arginine (55 Ci /mmol) (containing 34 nM (0.2 mCi)), 1 mM NADPH, 100 nM calmodulin, 2 mM CaCl2, and with varying concentrations of inhibitors, in a final volume of […]. The reaction was stopped by adding 1 mL of stop buffer (2 mM EGTA, 2 mM EDTA, 20 mM HEPES, pH 5.5). The total volume was then applied to a 1 mL Dowex AG 50WX-8 column (Na^+ form, BioRad) that had been pre-equilibrated with the stop buffer. L-[2,3-^3 H]Citrulline was eluted (2×) with 0.5 mL of stop buffer and radioactivity was determined by liquid scintillation counting. The L-[2,3-^3 H]arginine (Dupont, NEN) was purified prior to use on Dowex AG-1-X8 (CH3 CO2 -- form, Bio-Rad), eluted with distilled water, acidified, concentrated on a Speed-Vac (Savant) and stored at -20° C.

EDRF (NO) production = conditions: cited from earlier work
NO synthase enzyme = conditions: cited from earlier work
bovine coronary artery = conditions: cited from earlier work

T2 sequence (P29477 whole entry, canonical isoform): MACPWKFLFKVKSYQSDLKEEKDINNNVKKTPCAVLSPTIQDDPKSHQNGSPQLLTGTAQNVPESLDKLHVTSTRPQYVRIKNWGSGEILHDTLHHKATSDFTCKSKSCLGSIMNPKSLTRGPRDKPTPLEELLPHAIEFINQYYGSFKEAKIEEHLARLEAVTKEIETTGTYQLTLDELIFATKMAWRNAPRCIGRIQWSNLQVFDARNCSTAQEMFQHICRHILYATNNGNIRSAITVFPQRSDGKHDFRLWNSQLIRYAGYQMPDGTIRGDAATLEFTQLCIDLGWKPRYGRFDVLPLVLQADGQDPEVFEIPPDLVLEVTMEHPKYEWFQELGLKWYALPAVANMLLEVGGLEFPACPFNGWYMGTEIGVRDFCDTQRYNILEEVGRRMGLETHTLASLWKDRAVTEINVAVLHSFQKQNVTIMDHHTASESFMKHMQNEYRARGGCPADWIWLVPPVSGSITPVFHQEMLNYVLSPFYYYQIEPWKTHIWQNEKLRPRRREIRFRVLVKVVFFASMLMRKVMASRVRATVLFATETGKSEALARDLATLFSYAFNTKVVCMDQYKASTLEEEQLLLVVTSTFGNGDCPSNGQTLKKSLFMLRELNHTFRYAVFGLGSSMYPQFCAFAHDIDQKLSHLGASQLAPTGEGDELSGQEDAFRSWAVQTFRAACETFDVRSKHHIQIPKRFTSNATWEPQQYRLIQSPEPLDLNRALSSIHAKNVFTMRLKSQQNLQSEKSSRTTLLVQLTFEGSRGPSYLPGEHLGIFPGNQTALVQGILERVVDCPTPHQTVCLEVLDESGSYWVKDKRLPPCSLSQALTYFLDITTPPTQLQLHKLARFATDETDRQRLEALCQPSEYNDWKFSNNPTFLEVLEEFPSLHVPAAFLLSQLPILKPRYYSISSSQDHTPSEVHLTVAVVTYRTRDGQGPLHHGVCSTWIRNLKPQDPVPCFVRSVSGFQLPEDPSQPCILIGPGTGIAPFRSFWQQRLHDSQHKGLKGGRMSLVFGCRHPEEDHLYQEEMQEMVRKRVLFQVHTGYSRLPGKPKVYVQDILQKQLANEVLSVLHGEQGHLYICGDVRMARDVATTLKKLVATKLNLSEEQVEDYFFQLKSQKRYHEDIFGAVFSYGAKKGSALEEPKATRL
T1 sequence (P29476 whole entry): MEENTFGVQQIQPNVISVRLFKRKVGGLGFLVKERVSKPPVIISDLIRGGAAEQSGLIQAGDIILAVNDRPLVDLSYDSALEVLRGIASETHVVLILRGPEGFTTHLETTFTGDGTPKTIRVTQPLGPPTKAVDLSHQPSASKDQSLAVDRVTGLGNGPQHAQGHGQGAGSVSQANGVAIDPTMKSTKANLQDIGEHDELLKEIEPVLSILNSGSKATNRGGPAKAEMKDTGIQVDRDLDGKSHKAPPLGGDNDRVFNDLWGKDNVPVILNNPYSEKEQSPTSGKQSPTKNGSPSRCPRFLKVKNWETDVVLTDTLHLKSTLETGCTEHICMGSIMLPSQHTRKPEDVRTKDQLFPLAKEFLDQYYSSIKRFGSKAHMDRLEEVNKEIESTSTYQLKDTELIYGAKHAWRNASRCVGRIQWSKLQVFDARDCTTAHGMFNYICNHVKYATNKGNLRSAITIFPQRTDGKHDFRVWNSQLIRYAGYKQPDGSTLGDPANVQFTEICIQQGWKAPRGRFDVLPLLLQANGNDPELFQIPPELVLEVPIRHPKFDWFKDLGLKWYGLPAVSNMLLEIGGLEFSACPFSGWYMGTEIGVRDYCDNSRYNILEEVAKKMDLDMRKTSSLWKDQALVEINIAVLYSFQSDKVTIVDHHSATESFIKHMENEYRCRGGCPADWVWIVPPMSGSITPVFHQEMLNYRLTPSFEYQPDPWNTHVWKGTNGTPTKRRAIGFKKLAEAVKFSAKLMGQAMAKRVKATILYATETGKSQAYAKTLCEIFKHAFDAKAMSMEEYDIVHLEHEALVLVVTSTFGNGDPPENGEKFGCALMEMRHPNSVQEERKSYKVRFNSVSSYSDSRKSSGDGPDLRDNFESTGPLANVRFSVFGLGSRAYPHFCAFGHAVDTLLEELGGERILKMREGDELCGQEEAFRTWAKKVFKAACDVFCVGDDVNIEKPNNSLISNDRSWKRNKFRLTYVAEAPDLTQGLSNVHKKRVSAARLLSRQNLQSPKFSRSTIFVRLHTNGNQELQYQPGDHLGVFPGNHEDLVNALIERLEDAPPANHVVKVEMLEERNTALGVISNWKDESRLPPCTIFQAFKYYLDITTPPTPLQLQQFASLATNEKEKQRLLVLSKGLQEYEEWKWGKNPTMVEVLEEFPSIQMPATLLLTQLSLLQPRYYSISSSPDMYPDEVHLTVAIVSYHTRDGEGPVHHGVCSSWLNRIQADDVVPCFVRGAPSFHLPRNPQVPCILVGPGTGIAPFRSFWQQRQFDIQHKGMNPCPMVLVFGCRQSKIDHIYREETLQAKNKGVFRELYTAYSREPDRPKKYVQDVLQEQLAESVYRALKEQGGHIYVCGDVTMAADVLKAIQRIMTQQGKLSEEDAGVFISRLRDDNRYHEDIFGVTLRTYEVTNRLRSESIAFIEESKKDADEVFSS

Row | inhibition at 100 µM (Type I (rat brain) NOS) [%] | IC50 (Type I (rat brain) NOS) [µM] | inhibition at 100 µM (Type II (macrophage) NOS) [%] | IC50 (Type II (macrophage) NOS) [µM] | Compound | EDRF (NO) production (EDRF (NO) production) | substrate for the NO synthase enzyme (NO synthase enzyme) | cGMP accumulation (bovine coronary artery; accompanying relaxation of bovine coronary artery) | relaxation of bovine coronary artery (bovine coronary artery)
1 | 88 | 4 | 88 | 10 | Cc1ccc([N+](=O)[O-])c(NCCC[C@H](N)C(=O)O)c1 [Example 2, (2S)-2-amino-5-(5-methyl-2-nitrophenylamino)pentanoic acid] |  |  |  | 
2 | 99 | 3 |  | 10 | Cc1ccc([N+](=O)[O-])c(NC/C=C/[C@H](N)CO)c1 [Example 3, (2S)-2-amino-5-(5-methyl-2-nitrophenylamino)-pent-3E-en-1-ol] |  |  |  | 
3 | 94 | 3 | 99 | 2.5 | Cc1ccc([N+](=O)[O-])c(NCCCC(N)CO)c1 (centres unmarked) [Example 4, 2-amino-5-(5-methyl-2-nitrophenylamino)-1-pentanol] |  |  |  | 
4 | 68 | 20 | 46 | 100 | COc1ccc([N+](=O)[O-])c(NCCC[C@H](N)C(=O)O)c1 [Example 5, (2S)-2-amino-5-(5-methoxy-2-nitrophenylamino)pentanoic acid] |  |  |  | 
5 | 55 | 100 | 11 | > 100 | N[C@@H](CCCNc1c(Cl)cccc1[N+](=O)[O-])C(=O)O [Example 6, (2S)-2-amino-5-(2-chloro-6-nitrophenylamino)pentanoic acid] |  |  |  | 
6 | 91 | 40 |  | > 100 | Cc1ccc([N+](=O)[O-])c(NCCCC[C@H](N)C(=O)O)c1 [Example 7, (2S)-2-amino-6-(2-nitro-5-methylphenylamino)hexanoic acid] |  |  |  | 
7 | 97 | 1 | 95 | 9 | Cc1ccc([N+](=O)[O-])c(SCCC[C@H](N)C(=O)O)c1 [Example 8, 2(S)-amino-5-(5-methyl-2-nitrophenylthioxy)pentanoic acid] |  |  |  | 
8 | 58 | 70 | 45 | 100 | Cc1ccc([N+](=O)[O-])c(NCCC[C@@H](N)C(=O)O)c1 [Example 10, (2R)-2-amino-5-(5-methyl-2-nitrophenylamino)pentanoic acid] |  |  |  | 
9 | 6 | > 100 | 50 | 100 | N#Cc1ccccc1NCCC[C@H](N)C(=O)O [Example 11, (2S)-2-amino-5-(2-cyanophenylamino)pentanoic acid] |  |  |  | 
10 | 95 |  | 94 | 7 | N=C(NCCC[C@H](N)C(=O)O)N[N+](=O)[O-] [NNLA, NNitro-L-arginine, reference compound] |  |  |  | 
11 |  |  |  |  | CNC(=N)NCCCC(N)C(=O)O (centres unmarked) [N^G -methylarginine] | inhibited |  |  | 
12 |  |  |  |  | N-hydroxyarginine |  | substrate |  | 
13 |  |  |  |  | nitric oxide [nitric oxide (NO)] |  |  | cGMP accumulation | potent and transient relaxation
